Assays:
Adenosine receptor A2b = molecular target: T1, Adenosine receptor A2b (Homo sapiens, UniProt P29275); experiment: Binding affinity to recombinant human adenosine A2B receptor expressed in HEK293 cell membrane incubated for 15 to 30 mins by Topcount scintillation counter assay; type: cell membranes
T1 sequence (P29275 whole entry): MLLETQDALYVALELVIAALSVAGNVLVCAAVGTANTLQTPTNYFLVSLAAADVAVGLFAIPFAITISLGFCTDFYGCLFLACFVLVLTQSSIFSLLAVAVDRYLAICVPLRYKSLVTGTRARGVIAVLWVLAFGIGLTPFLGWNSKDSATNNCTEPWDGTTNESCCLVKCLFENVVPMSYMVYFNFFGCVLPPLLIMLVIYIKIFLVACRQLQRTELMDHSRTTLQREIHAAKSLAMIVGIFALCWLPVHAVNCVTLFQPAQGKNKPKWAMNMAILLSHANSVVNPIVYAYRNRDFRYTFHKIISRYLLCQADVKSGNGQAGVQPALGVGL

Adenosine receptor A2a = Adenosine receptor A2a (Homo sapiens, UniProt P29274); experiment: Displacement of [3H]-SCH58261 from recombinant human adenosine A2A receptor expressed in HEK293 cell membrane incubated for 15 to 30 mins by Topcount scintillation counter assay; type: cell membranes
Sequence of Adenosine receptor A2a (P29274 whole entry): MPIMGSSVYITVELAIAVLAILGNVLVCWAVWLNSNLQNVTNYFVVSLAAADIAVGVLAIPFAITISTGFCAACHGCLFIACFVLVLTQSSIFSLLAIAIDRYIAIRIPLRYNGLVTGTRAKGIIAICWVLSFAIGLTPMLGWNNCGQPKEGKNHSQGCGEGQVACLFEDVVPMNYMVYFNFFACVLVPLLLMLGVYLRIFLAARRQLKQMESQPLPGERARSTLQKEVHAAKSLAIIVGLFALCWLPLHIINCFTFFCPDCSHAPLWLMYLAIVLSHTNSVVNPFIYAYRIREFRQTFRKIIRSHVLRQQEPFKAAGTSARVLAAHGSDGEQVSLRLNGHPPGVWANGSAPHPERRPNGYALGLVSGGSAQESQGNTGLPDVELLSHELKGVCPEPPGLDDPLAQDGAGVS

IC50 (Adenosine receptor A2b) [nM] | IC50 (Adenosine receptor A2a) [nM] | Compound
3.1 | 1.1 | COc1cccc2c1nc(N)n1nc(C3CC3c3ccc4c(c3)CCNC4)nc21 (stereo unspecified)
1.6 |  | COc1cccc2c1nc(N)n1nc([C@H]3C[C@H](c4ncc(C(C)(C)N)cc4C)C3)nc21
2.7 | 0.8 | COc1cccc2c1nc(N)n1nc([C@H]3C[C@H](c4ncc(C(C)(C)N)cc4Cl)C3)nc21
3.3 |  | COc1cccc2c1nc(N)n1nc([C@H]3C[C@H](c4ccc(C(C)(C)O)cn4)C3)nc21

— ChEMBL document CHEMBL5370695, “Novel Adenosine Receptor Antagonists for Treating Cancer and Immune-Related Disorders” (ACS Med Chem Lett, 2023)
